Experimental data as given in publication PMC9994102, “A fluorescent photoaffinity probe for formyl peptide receptor 1 labelling in living cells†” (RSC Chemical Biology, 2023).
Values belong to the molecule of their own block, whether it stands above or below them. Square brackets hold non-standard residues; d marks the D form. * marks the point of attachment. FITC = O=C1OC2(c3ccc(O)cc3Oc3cc(O)ccc32)c2ccc(NC(=S)*)cc21; Abu(3-Me-diazirin-3-yl) = CC1(CC[C@H](N)C(=O)O)N=N1; Nle = CCCC[C@H](N)C(=O)O; For = O=C*

How the values were obtained:
[1] = system: FPR1 (FPR1-HEK293T cells); experiment: flow cytometry competition of probe-TAMRA with known ligands; format: binding; conditions: probe-TAMRA 10 nM
Protocol: (§1) Cells were incubated in a humidified atmosphere at 37 °C containing 5% CO2. HEK293T cells were cultured in Dulbecco’s Modified Eagle Medium (DMEM, Fisher) supplemented with 1% L-glutamine, 10% v/v fetal bovine serum (FBS) and 1% v/v Pen-Strep. Cells were detached using 1  trypsin in PBS.
HEK293T cells were seeded in a 6-well plate (2 × 10^5 cells/well) and incubated at 37 °C overnight. The plasmid containing FPR1 gene (0.7 µg/µL stock) and Turbofect (Fisher) were mixed with DMEM (no FBS) and incubated at room temperature for 15 min (1 µg of plasmid and 3 µL of Turbofect in 100 µL of media per well). The solution was added to the plated cells and incubated at 37 °C overnight. For mock transfection, the plasmid was omitted. […]
concentrations of 5 µM, 20 µM, 5 µM respectively) or DMSO for 30 min on ice (final DMSO concentration of 2%). […] Membranes were resuspended in 25 µL PBS, irradiated for 30 s at 365 nm, deglycosylated as described in section 2.6, and then analysed by SDS-PAGE.
Crosslinked cell lysate samples were analysed using gel-based fluorescent imaging. […] Fluorescence was measured using a BioRad ChemiDoc MP Imaging System with a Cy3 filter. […]

[2] = system: FPR1 (crude membrane fraction of transfected HEK293T cells); experiment: gel-based competition of probe-TAMRA labelling in membrane fraction; format: binding; conditions: 50 nM probe-TAMRA, 30 min on ice, 2% DMSO, 365 nm 30 s, PNGaseF
Protocol: (a) UV-dependent crosslinking analysed by gel and western blot. […] Following cell lysis, samples were separated by SDS-PAGE and analysed by in-gel fluorescence (550 nm emission) and anti-FLAG western blot. Ponceau staining was used to assess protein loading. […] Probes were used at a concentration of 10 nM. Samples were washed twice before analysis and 10,000 cells were measured per sample. […] HEK293T cells transfected with FPR1 or mock transfected were suspended, lysed by sonication and membrane fraction isolated by centrifugation. […] Proteins were deglycosylated with PNGaseF, separated by SDS-PAGE and analysed by in-gel fluorescence (550nm emission). The gel was Coomassie stained to provide evidence of equal protein loading.
as §1
HEK293T cells were seeded in a 6-well plate (2 × 10^5 cells/well) and incubated at 37 °C overnight. The plasmid containing FPR1 gene (0.7 µg/µL stock) and Turbofect (Fisher) were mixed with DMEM (no FBS) and incubated at room temperature for 15 min (1 µg of plasmid and 3 µL of Turbofect in 100 µL of media per well). The solution was added to the plated cells and incubated at 37 °C overnight. For mock transfection, the plasmid was omitted.
For 10 cm plate transfection for lysate preparation, the following modifications were used: 1.6×10^6 cells were seeded per plate; 8 µg plasmid and 24 µL Turbofect were mixed in 800 µL DMEM.
Transfected cells were washed with PBS and incubated in 1 mL of PBS with EDTA (per well) at 37 °C for 3 min to detach. The cells were then transferred into sterile Eppendorf tubes and centrifuged at 2000 rpm for 3 min at 4 °C to form pellets. Subsequently the cells were incubated with 1 mL of 10 nM probe in PBS at 0 °C for 30 min. […] Protein concentration was determined by the DC protein assay (Bio-Rad) using BSA to generate a standard curve. […]

[3] = target: T1, FPR1 (FLAG-tagged, transiently transfected HEK293T cells) (Homo sapiens, UniProt P21462); experiment: flow cytometry binding to FPR1-transfected HEK293T cells; conditions: 10 nM; 10 000 cells per sample
T1 construct: host or cells: HEK293T, transient transfection with Turbofect
T1 sequence (P21462 1-350): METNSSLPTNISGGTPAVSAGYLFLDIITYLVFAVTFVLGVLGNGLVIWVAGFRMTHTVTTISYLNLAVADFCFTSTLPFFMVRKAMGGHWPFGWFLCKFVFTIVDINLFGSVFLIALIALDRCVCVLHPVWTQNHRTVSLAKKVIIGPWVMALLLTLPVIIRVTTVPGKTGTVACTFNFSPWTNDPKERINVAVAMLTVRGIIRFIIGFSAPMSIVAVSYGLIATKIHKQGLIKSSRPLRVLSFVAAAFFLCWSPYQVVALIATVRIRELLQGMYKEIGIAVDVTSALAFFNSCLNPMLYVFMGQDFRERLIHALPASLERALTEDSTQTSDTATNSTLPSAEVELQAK
Protocol: Fig. 2 Evaluation of probe-TAMRA as a ligand for FPR1 by flow cytometry. Histograms of FPR1-transfected (+FPR1) or mock-transfected (mock) HEK293T cells incubated with Tracer-FITC (a) or probe-TAMRA (b) each at 10 nM at the indicated wavelengths. 10 000 cells measured per sample. (c) Plot of mean fluorescence intensity determined from flow cytometry analysis following incubation with increasing concentrations of probe-TAMRA with transfected (blue) or mock transfected (grey) cells. Data from 3 biological replicates; error bars represent standard error of the mean. Black curve is subtraction of background binding (grey curve) from blue curve and represents specific binding. (d) Dot plot from incubation of transfected cells with Tracer-FITC alone (cyan), probe-TAMRA alone (blue), or co-incubation of probe and tracer (red). All peptides at 10 nM. (e) Plot of percentage maximum fluorescence at 525 nm (FITC) and 585 nm (TAMRA) wavelengths from a flow cytometry competition experiment in which Tracer-FITC was held constant at a concentration of 10 nM and the concentration of probe-TAMRA increased from 0–200 nM. […]
Transfected cells were washed with PBS and incubated in 1 mL of PBS with EDTA (per well) at 37 °C for 3 min to detach. […] Protein concentration was determined by the DC protein assay (Bio-Rad) using BSA to generate a standard curve. […]

[4] = target: FPR1; set-up: method as in 4 sources, ref [17] = [17]; PMID 18312550; doi:10.1111/j.1747-0285.2008.00646.x; Wittelsberger A. Mierke D. F. Rosenblatt M. Mapping ligand-receptor interfaces: approaching the resolution limit of benzophenone-based photoaffinity scanning Chem. Biol. Drug Des. 2008 71 4 380 383 10 ||| ref [20] = [20]; PMID 472759; doi:10.1126/science.472759; Niedel J. E. Kahane I. Receptor-Mediated Internalisation of Fluorescent Chemotactic Peptide by Human Neutrophils Science 1979 205 1412 1414 10.1126/science.472759 472759 ||| ref [21] = [21]; PMID 15209517; doi:10.1021/bi035335i; Waller A. Sutton K. L. Kinzer-Ursem T. L. Absood A. Traynor J. R. Linderman J. J. Omann G. M. Receptor binding kinetics and cellular responses of six N-formyl peptide agonists in human neutrophils Bio ||| ref [30] = [30]; PMID 19006074; doi:10.1002/cyto.a.20670; Strouse J. J. Young S. M. Mitchell H. D. Ye R. D. Prossnitz E. R. Sklar L. A. Edwards B. S. A novel fluorescent cross-reactive formylpeptide receptor/formylpeptide receptor-like 1 hexapeptide ligand C; conditions: cited from earlier work; for binding to FPR1: ref [20]
[5] = system: FPR1; conditions: ref [20]; cited from earlier work
Protocol: Upon agonist binding, FPR1 internalises following activation of G protein subunits, resulting in receptor desensitisation.[20] […] Upon heating to 37 °C, fluorescent material was ob ...

[6] = target: T2, Formyl peptide receptor 1, C-terminally FLAG-tagged (UniProt P21462 1-350); experiment: flow cytometry on cells; FPR1-transfected or mock-transfected HEK293T cells incubated with the fluorescent peptide (10 nM; probe-TAMRA titrated 0-200 nM); background of mock-transfected cells subtracted; 3 biological replicates; conditions: one partner purified
T2 construct: Formyl peptide receptor 1 (FPR1); Glycosylated in HEK293T (diffuse band that sharpens with PNGaseF); also called FPR1; FLAG-tagged FPR1; source: HEK293T, transiently transfected; on living cells, in lysate (sonication) or in a crude membrane fraction; not shown: FLAG, C-terminal, kept
T2 sequence (looked up): T1 sequence (P21462 1-350)

Molecule: Boc-MLF
concentration at which competition of probe-TAMRA binding observed [1]: 10 to 50 µM
inhibition of probe-TAMRA labelling ([2]; 20 μM competitor): incomplete inhibition

Molecule: For-[Nle]LF[Nle]YK(FITC)-OH [Tracer-FITC]
fluorescence shift in flow cytometry [3]: clear shift to a population of fluorescent cells with minimal background binding in mock-transfected cells
Kd ([4]; ref [17], read-out: reported KD): ~3 nM
binding to FPR1 [4]: low nM binding to FPR1

Molecule: fMLF
concentration at which competition of probe-TAMRA binding observed [1]: greater than 5 μM
inhibition of probe-TAMRA labelling ([2]; 5 μM competitor): incomplete inhibition
KD of tripeptide (reported, words) ([4]; ref [21]): nM range

Molecule: fMLFF
inhibition of probe-TAMRA labelling ([2]; 5 μM competitor): complete inhibition
potency as reported ([4]; ref [30]): more potent

Molecule: formyl-Nle-Leu-Phe-Nle-Tyr-Lys(TAMRA)-OH [TAMRA version of the tracer]
binding to FPR1 [4]: low nM binding to FPR1
internalisation (literature) [5]: receptor internalisation

Kd [6]: 3.5 ± 0.9 nM
Molecule: For-[Abu(3-Me-diazirin-3-yl)]LF[Nle]YK(5(6)‑TAMRA)-OH [probe-TAMRA]
